Data published in paper PMC11056994, “Potentiating Activity of GmhA Inhibitors on Gram-Negative Bacteria” (Journal of Medicinal Chemistry, 2024).
Like-named read-outs stand apart in the source and are kept apart here.

Assays:
Format in all cases: cell-based
[1] = system: E. coli C7 (018:K1:H7) LPS biosynthesis; experiment: Inhibition of bacterial LPS biosynthesis (silver-stained LPS SDS-PAGE); conditions: Escherichia coli; E. coli C7 LPS biosynthesis by SDS-PAGE; mean ± SD of 3 experiments for 17 and 24, n = 1 for others; read-out: EC50
Experimental: The compounds to be tested were prepared in deionized water/DMSO (50/50) solutions and added (25 μL) in sterile culture microtubes. The test bacterial isolate was isolated on tryptic soy agar (TSA) overnight. Isolated colonies were cultured in 10 mL of LB medium at 37 °C up to an OD of typically 0.15. These exponentially growing bacteria were finally diluted to 5 × 10^5 cfu/mL and added in each well (225 μL) for incubation with the compounds at 37 °C for approximately 5 h, up to an OD of ≈0.2–0.4. Some test compounds, e.g., phospho-sugars are actively transported into the bacterial cytosol via the phospho-sugar transporter UhpT (Figure S3). 2.5 μL portion of a 10 mM water solution of glucose-6-phosphate (G6P, 100 μM final concentration, from Sigma) was added in the culture tube in order to induce UhpT expression. LPS extraction: Bacterial cultures were normalized via OD determination, pelleted, and washed with 1 mL of phosphate-buffered-saline (PBS). The pellets were then denatured for 10 min at 95–100 °C in 50 μL of 0.2% sodium dodecyl sulfate (SDS), β-mercaptoethanol 1%, glycerol 36%, Tris 30 mM, pH 7.4, and bromophenol blue 0.001%. Samples were cooled down to room temperature, supplemented with 1.5 μL of proteinase K at 20 mg/mL, incubated for 1 h at 55 °C, and centrifuged for 30 min at 13,000 rpm at 25 °C. The resulting supernatant, containing LPS, was finally analyzed by SDS-PAGE electrophoresis. LPS SDS-PAGE electrophoresis: Polyacrylamide gels (16%/4% acrylamide for separation and concentration, respectively) were prepared, loaded with 8 μL of LPS extracts, and migrated. Silver staining: Gels were incubated overnight in 5% acetic acid/40% ethanol/deionized water, treated by 1% periodic acid/5% acetic acid for 15 min, washed 4 times for 10 min in deionized water, and finally incubated for 18 min in the dark in a silver nitrate solution composed of 56 mL of 0.1 M NaOH (56 mL), 33% aq ammonia (4 mL), 5% AgNO3 (45 mL), and deionized water (195 mL). Gels were then washed extensively in deionized water for 30 min and incubated for 10–15 min (up to LPS band appearance) in the revelation mix composed of 300 mL of deionized water (300 mL), 36.5% formaldehyde (0.3 mL, Fluka), and 2.3 M citric acid (0.1 mL). The revelation was stopped by incubating the gels in 10% acetic acid for 5 min. Gels were finally washed in deionized water, numerized with a Samsung PL51 camera, and analyzed by ImageJ software. The percentage of inhibition of LPS heptosylation was defined as the relative area of the Re-LPS band compared to the cumulated areas of Re-LPS and Core-LPS bands.

E. coli C7 = experiment: MIC of the compounds alone on E. coli C7; conditions: compound alone, n = 2, read-out: MIC E. coli C7
Experimental: Then, we investigated the cytotoxicity and the ability of such inhibitors to potentiate the antimicrobial activity of macrolide and rifamycin antibiotics.
(§1) The compound to be tested was diluted in 50 mM HEPES buffer (pH 7.4) from 10 mM stock solution in DMSO. Five microliters of compound dilution or buffer were distributed in a sterile clear round-bottom 96-well polystyrene microplate (Corning). Five microliters of serial 2-fold dilutions of reference antibiotics [Erythromycin (Fluka), Rifampicin (Fluka)] in DMSO were added. An exponentially growing preculture of E. coli C7 (O18:K1:H7) in LB was diluted to 10^4 cfu/mL and supplemented with 100 μM G6P, and 90 μL of this suspension were added to the microplates. After overnight incubation at 37 °C, the MIC of the antibiotics were determined for each test compound concentration as the lowest antibiotic concentration for which no bacterial pellet is visible without magnification.

HepG2 cytotoxicity = conditions: human, HepG2 cells; n = 2
Experimental: HepG2 cells (LGC Promochem, ref HB-8065) in EMEM medium supplemented with fetal bovine serum (10%), Ampicillin (100 mg/L), and Streptomycin (100 mg/L) were plated on cell culture plates (Costar 3596, 2 × 10^4 cells/well) and incubated overnight at 37 °C in 5% CO2. The culture medium was then aspirated and replaced by supplemented EMEM (210 μL including 2% DMSO) containing dilutions of compounds. Plates were incubated overnight at 37 °C in 5% CO2. Cell viability was determined by the Celltiter Aqueous One Cell Proliferation Assay (G3581–80, Promega) according to the manufacturer’s recommendations, using a Multiskan absorption reader (490 nm).

E. coli C7 (O18:K1:H7) [2] = experiment: MIC determination of antibiotics combined with a GmhA inhibitor; conditions: 17 at 27 mg/L (100 μM), glucose-6-phosphate 100 μM, E. coli C7
Experimental: as §1

E. coli C7 (O18:K1:H7) [3] = experiment: Time-kill kinetics of rifampicin in combination with compound 17
Experimental: Rifampicin (Fluka) was diluted in DMSO, and the compound to be tested was diluted in water from 50 mM stock solution in 50 mM HEPES buffer, pH 7.4. Ten microliter of DMSO was distributed in sterile 1.5 mL polypropylene microtubes (Eppendorf). 2.5 μL of compound dilution or water, 2.5 μL of Rifampicin or DMSO, 2.5 μL of 10 mM G6P in water (100 μM final concentration), and 230 μL of LB were added to the microtubes. E. coli C7 (O18:K1:H7) was grown in 5 mL of LB broth at 37 °C until mid-log phase. The suspension was then diluted in LB to obtain a 100× inoculum of 5 × 10^7 cfu/mL, 2.5 μL of which were added to each microtube (5 × 10^5 cfu/mL final inoculum). The microtubes were incubated at 37 °C, and aliquots of 10 μL were sampled at 0, 2, 4, 6, 8, and 24 h for bacterial enumeration in duplicate.

[4] = system: E. coli S1 LPS heptosylation; experiment: LPS heptosylation inhibition in clinical isolate E. coli S1; conditions: Escherichia coli; E. coli S1, ESBL; 100 μM glucose-6-phosphate; n = 1
Experimental: (§2) Compound 17 was also tested against clinical isolates of E. coli,[…], and K. pneumoniae for its ability to block LPS heptosylation (EC50). As detailed in Table 3, 17 in the presence of the UhpT inducer glucose-6-phosphate (100 μM) is a specific inhibitor of LPS heptosylation against various strains, including multiresistant clinical isolates expressing ESBL, AmpC, or NDM-1.
(§3) The compounds to be tested were prepared in deionized water/DMSO (50/50) solutions and added (25 μL) in sterile culture microtubes. The test bacterial isolate was isolated on tryptic soy agar (TSA) overnight. Isolated colonies were cultured in 10 mL of LB medium at 37 °C up to an OD of typically 0.15. These exponentially growing bacteria were finally diluted to 5 × 10^5 cfu/mL and added in each well (225 μL) for incubation with the compounds at 37 °C for approximately 5 h, up to an OD of ≈0.2–0.4. Some test compounds, e.g., phospho-sugars are actively transported into the bacterial cytosol via the phospho-sugar transporter UhpT (Figure S3). […] The resulting supernatant, containing LPS, was finally analyzed by SDS-PAGE electrophoresis. […] Gels were finally washed in deionized water, numerized with a Samsung PL51 camera, and analyzed by ImageJ software. […]

[5] = system: E. cloacae S2 LPS heptosylation; experiment: LPS heptosylation inhibition in clinical isolate E. cloacae S2; conditions: Enterobacter cloacae; E. cloacae S2, AmpC; 100 μM glucose-6-phosphate; n = 1
Experimental: as §2, §3

[6] = system: K. pneumoniae S3 LPS heptosylation; experiment: LPS heptosylation inhibition in clinical isolate K. pneumoniae S3; conditions: Klebsiella pneumoniae, read-out: EC50 of LPS heptosylation
Experimental: as §2, §3

SMILES: O=CN(O)C[C@H](O)[C@H](O)[C@H](O)COP(=O)(O)O [Compound 17]
- EC50 [1]: 20 ± 3 µM
- MIC (E. coli C7; Escherichia coli, C7): > 1000 µM
- MIC (E. coli C7): >1000 µM
- CC50 (HepG2 cytotoxicity): > 1000 µM
- potentiation of erythromycin (E. coli C7 (O18:K1:H7) [2]): 32 fold
- potentiation of rifampicin (E. coli C7 (O18:K1:H7) [2]): 16 fold
- effect on bacterial growth, compound alone (E. coli C7 (O18:K1:H7) [3]; 17 300 μM alone or rifampicin 1 mg/L alone): did not alter at all the bacterial growth
- bacterial counts at 24 h (E. coli C7 (O18:K1:H7) [3]; 17 (300 μM) combined with rifampicin (1 mg/L), 24 h): no detectable counts
- reduction of the bacterial inoculum (E. coli C7 (O18:K1:H7) [3]; 17 (300 μM) combined with rifampicin (1 mg/L), in less than 6 h): more than 3 log
- EC50 [4]: 21 µM
- EC50 [5]: 18 µM
- EC50 [6]: 21 µM
